Source: patent publication US11413291B2, “Pesticidally active heterocyclic derivatives with sulfur containing substituents” (SYNGENTA PARTICIPATIONS AG, priority 2017, dated 2022)

How the values were obtained:
Assay type in all cases: in vivo
Spodoptera littoralis [1] = assay: Example B1: Spodoptera littoralis, sprayed cotton leaf discs; settings: foliar, 72 h, application rate 200 ppm, L1 larvae, 3 days after infestation
Experimental: Cotton leaf discs were placed onto agar in 24-well microtiter plates and sprayed with aqueous test solutions prepared from 10′000 ppm DMSO stock solutions. After drying the leaf discs were infested with five L1 larvae. The samples were assessed for mortality, anti-feeding effect, and growth inhibition in comparison to untreated samples 3 days after infestation. Control of Spodoptera littoralis by a test sample is given when at least one of the categories mortality, anti-feedant effect, and growth inhibition is higher than the untreated sample.

Spodoptera littoralis [2] = assay: Example B2: Spodoptera littoralis, systemic uptake via lettuce roots from agar; settings: 144 h, test rate 12.5 ppm, 6 days after infestation, read-out: effect in at least one of the three categories (mortality, anti-feeding, or growth inhibition)
Excerpt: Test compounds were applied by pipette from 10′000 ppm DMSO stock solutions into 24-well plates and mixed with agar. Lettuce seeds were placed onto the agar and the multi well plate was closed by another plate which contained also agar. After 7 days the compound was absorbed by the roots and the lettuce grew into the lid plate. The lettuce leaves were then cut off into the lid plate. Spodoptera eggs were pipetted through a plastic stencil onto a humid gel blotting paper and the lid plate was closed with it. The samples were assessed for mortality, anti-feedant effect and growth inhibition in comparison to untreated samples 6 days after infestation.

Plutella xylostella = assay: Example B3: Plutella xylostella, artificial diet; settings: 120 h, application rate 200 ppm, L2 larvae, 5 days after infestation, read-out: effect in at least one of the two categories (mortality or growth inhibition)
Experimental: 24-well microtiter plates with artificial diet were treated with aqueous test solutions prepared from 10,000 ppm DMSO stock solutions by pipetting. After drying, the plates were infested with L2 larvae (10 to 15 per well). The samples were assessed for mortality and growth inhibition in comparison to untreated samples 5 days after infestation.

Diabrotica balteata = assay: Example B4: Diabrotica balteata, sprayed maize sprouts; settings: 96 h, application rate 200 ppm, L2 larvae, 4 days after infestation, read-out: effect in at least one of the two categories (mortality or growth inhibition)
Experimental: Maize sprouts placed onto an agar layer in 24-well microtiter plates were treated with aqueous test solutions prepared from 10,000 ppm DMSO stock solutions by spraying. After drying, the plates were infested with L2 larvae (6 to 10 per well). The samples were assessed for mortality and growth inhibition in comparison to untreated samples 4 days after infestation.

Myzus persicae [3] = assay: Example B5: Myzus persicae feeding/contact, sprayed sunflower leaf discs; settings: Myzus persicae, foliar, 144 h; application rate 200 ppm; mixed ages; 6 days after infestation
Experimental: Sunflower leaf discs were placed onto agar in a 24-well microtiter plate and sprayed with aqueous test solutions prepared from 10,000 ppm DMSO stock solutions. After drying, the leaf discs were infested with an aphid population of mixed ages. The samples were assessed for mortality 6 days after infestation.

Myzus persicae [4] = assay: Example B6: Myzus persicae systemic, pea seedling roots in test solution; settings: Myzus persicae, 144 h; test rate 24 ppm; mixed ages; 6 days
Experimental: Roots of pea seedlings infested with an aphid population of mixed ages were placed directly into aqueous test solutions prepared from 10,000 DMSO stock solutions. The samples were assessed for mortality 6 days after placing seedlings into test solutions.

Bemisia tabaci = assay: Example B7: Bemisia tabaci, sprayed cotton leaf discs; settings: foliar, 144 h, application rate 200 ppm, adult white flies, 6 days after incubation
Experimental: Cotton leaf discs were placed on agar in 24-well microtiter plates and sprayed with aqueous test solutions prepared from 10,000 ppm DMSO stock solutions. After drying the leaf discs were infested with adult white flies. The samples were checked for mortality 6 days after incubation.

Euschistus heros = assay: Example B8: Euschistus heros, sprayed soybean leaves; settings: Euschistus heros, 120 h; application rate 200 ppm; N2 nymphs; 5 days after infestation; read-out: effect in at least one of the two categories (mortality or growth inhibition)
Experimental: Soybean leaves on agar in 24-well microtiter plates were sprayed with aqueous test solutions prepared from 10,000 ppm DMSO stock solutions. After drying the leaves were infested with N2 nymphs. The samples were assessed for mortality and growth inhibition in comparison to untreated samples 5 days after infestation.

Tetranychus urticae = assay: Example B10: Tetranychus urticae, sprayed bean leaf discs; settings: foliar, 192 h, application rate 200 ppm, mixed population (mobile stages), 8 days after infestation
Experimental: Bean leaf discs on agar in 24-well microtiter plates were sprayed with aqueous test solutions prepared from 10,000 ppm DMSO stock solutions. After drying the leaf discs were infested with a mite population of mixed ages. The samples were assessed for mortality on mixed population (mobile stages) 8 days after infestation.

[5] = system: Frankliniella occidentalis; assay: Example B11: Frankliniella occidentalis, sprayed sunflower leaf discs; settings: foliar, 168 h, application rate 200 ppm, mixed ages, 7 days after infestation
Experimental: Sunflower leaf discs were placed on agar in 24-well microtiter plates and sprayed with aqueous test solutions prepared from 10,000 DMSO stock solutions. After drying the leaf discs were infested with a Frankliniella population of mixed ages. The samples were assessed for mortality 7 days after infestation.

CCn1c(C(F)(F)F)cc2nc(-c3ncc(C(C)(C)C#N)cc3S(=O)(=O)CC)n(C)c2c1=O [Compound P3, 2-[6-[5-ethyl-3-methyl-4-oxo-6-(trifluoromethyl)imidazo[4,5-c]pyridin-2-yl]-5-ethylsulfonyl-3-pyridyl]-2-methyl-propanenitrile]
≥ 80%: percent control (mortality, anti-feedant effect or growth inhibition) at 200 ppm (Spodoptera littoralis [1]) | percent effect (mortality, anti-feeding or growth inhibition) at 12.5 ppm (Spodoptera littoralis [2]) | percent effect (mortality or growth inhibition) at 200 ppm (Plutella xylostella) | percent effect (mortality or growth inhibition) at 200 ppm (Diabrotica balteata) | mortality at 200 ppm (Myzus persicae [3]) | mortality at 24 ppm (Myzus persicae [4]) | mortality at 200 ppm (Bemisia tabaci) | percent effect (mortality or growth inhibition) at 200 ppm (Euschistus heros) | mortality at 200 ppm (Tetranychus urticae) | mortality at 200 ppm [5]

CCS(=O)(=O)c1cc(C(C)(C)C#N)cnc1-c1cn2ccc(C(F)(F)C(F)(F)F)cc2n1 [Compound P6, 2-[5-ethylsulfonyl-6-[7-(1,1,2,2,2-pentafluoroethyl)imidazo[1,2-a]pyridin-2-yl]-3-pyridyl]-2-methyl-propanenitrile]
≥ 80%: percent control (mortality, anti-feedant effect or growth inhibition) at 200 ppm (Spodoptera littoralis [1]) | percent effect (mortality or growth inhibition) at 200 ppm (Plutella xylostella) | percent effect (mortality or growth inhibition) at 200 ppm (Diabrotica balteata) | mortality at 200 ppm (Myzus persicae [3]) | mortality at 200 ppm (Bemisia tabaci) | mortality at 200 ppm (Tetranychus urticae) | mortality at 200 ppm [5]

CCS(=O)(=O)c1cc(C(C)(C)C#N)cnc1-c1cn2ccc(SC(F)(F)F)cc2n1 [Compound P7, 2-[5-ethylsulfonyl-6-[7-(trifluoromethylsulfanyl)imidazo[1,2-a]pyridin-2-yl]-3-pyridyl]-2-methyl-propanenitrile]
≥ 80%: percent control (mortality, anti-feedant effect or growth inhibition) at 200 ppm (Spodoptera littoralis [1]) | percent effect (mortality or growth inhibition) at 200 ppm (Plutella xylostella) | percent effect (mortality or growth inhibition) at 200 ppm (Diabrotica balteata) | mortality at 200 ppm (Myzus persicae [3]) | mortality at 200 ppm (Bemisia tabaci) | mortality at 200 ppm [5]

CCS(=O)(=O)c1cc(C(C)(C)C#N)cnc1-c1nc2cc(C(F)(F)F)n(CC(F)(F)F)c(=O)c2n1C [Compound P11, 2-[5-ethylsulfonyl-6-[3-methyl-4-oxo-5-(2,2,2-trifluoroethyl)-6-(trifluoromethyl)imidazo[4,5-c]pyridin-2-yl]-3-pyridyl]-2-methyl-propanenitrile]
≥ 80%: percent control (mortality, anti-feedant effect or growth inhibition) at 200 ppm (Spodoptera littoralis [1]) | percent effect (mortality or growth inhibition) at 200 ppm (Plutella xylostella) | percent effect (mortality or growth inhibition) at 200 ppm (Diabrotica balteata) | mortality at 200 ppm (Myzus persicae [3]) | mortality at 200 ppm (Bemisia tabaci) | mortality at 200 ppm [5]

CCS(=O)(=O)c1cc(C(C)(C)C#N)ccc1-c1nc2cc(C(F)(F)F)n(C3CC3)c(=O)c2n1C [Compound P12, 2-[4-[5-cyclopropyl-3-methyl-4-oxo-6-(trifluoromethyl)imidazo[4,5-c]pyridin-2-yl]-3-ethylsulfonyl-phenyl]-2-methyl-propanenitrile]
≥ 80%: percent control (mortality, anti-feedant effect or growth inhibition) at 200 ppm (Spodoptera littoralis [1]) | percent effect (mortality or growth inhibition) at 200 ppm (Plutella xylostella) | percent effect (mortality or growth inhibition) at 200 ppm (Diabrotica balteata) | mortality at 200 ppm (Myzus persicae [3]) | mortality at 200 ppm (Bemisia tabaci) | mortality at 200 ppm (Tetranychus urticae) | mortality at 200 ppm [5]

CCS(=O)(=O)c1cc(C(C)(C)C#N)cnc1-c1nc2cc(C(F)(F)F)n(C3CC3)c(=O)c2n1C [Compound P17, 2-[6-[5-cyclopropyl-3-methyl-4-oxo-6-(trifluoromethyl)imidazo[4,5-c]pyridin-2-yl]-5-ethylsulfonyl-3-pyridyl]-2-methyl-propanenitrile]
≥ 80%: percent control (mortality, anti-feedant effect or growth inhibition) at 200 ppm (Spodoptera littoralis [1]) | percent effect (mortality or growth inhibition) at 200 ppm (Plutella xylostella) | percent effect (mortality or growth inhibition) at 200 ppm (Diabrotica balteata) | mortality at 200 ppm (Myzus persicae [3]) | mortality at 24 ppm (Myzus persicae [4]) | mortality at 200 ppm (Bemisia tabaci) | mortality at 200 ppm (Tetranychus urticae) | mortality at 200 ppm [5]
